According to US12077503B2, “Substituted cyclic amides and their use as herbicides” (FMC CORPORATION, priority 2015, dated 2024):

Key:
Type in all cases: in vivo
[1] = test system: barnyardgrass (Echinochloa crus-galli); test: Test B flooded paddy test; settings: Flood, 0 to 100 scale where 0 is no effect and 100 is complete control, 13 to 15 d
How it was run: (§1)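 Greenhouse paddy pots with 2-leaf stage plants received compound by direct addition to floodwater 3 cm deep, kept at that level. Scored visually at 13–15 d versus controls (0 no effect; 100 complete control).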

[2] = test system: rice (Oryra sativa); test: Test B flooded paddy test; settings: Flood, 0 to 100 scale where 0 is no effect and 100 is complete control, 13 to 15 d
How it was run: as §1

[3] = test system: sedge, umbrella (small-flower umbrella sedge, Cyperus difformis); test: Test B flooded paddy test; settings: Flood, 0 to 100 scale where 0 is no effect and 100 is complete control, 13 to 15 d
How it was run: as §1

[4] = test system: ducksalad (Heteranthera limosa); test: Test B flooded paddy test; settings: Flood, 0 to 100 scale where 0 is no effect and 100 is complete control, 13 to 15 d
How it was run: as §1

[5] = test system: pigweed (Amaranthus retroflexus); test: Test A postemergence; settings: for Pigweed plant response rating: 125 g ai/ha, visual injury rating on 0 to 100 scale (0 no effect, 100 complete control), approx. 10 d; for Plant response rating, Pigweed: 500 g ai/ha
How it was run: (§2)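 Seeds sprayed preemergence with a directed soil spray, or plants at 2 to 10 cm height and one- to two-leaf stage sprayed postemergence, with test chemicals in a non-phytotoxic solvent mixture containing surfactant, in loam soil–sand blend. Injury rated visually against untreated controls after about 10 d in greenhouse, 0 (no effect) to 100 (complete control).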

[6] = test system: ryegrass, Italian (Italian ryegrass, Lolium multiflorum); test: Test A postemergence; settings: for Ryegrass, Italian plant response rating: 125 g ai/ha, visual injury rating on 0 to 100 scale (0 no effect, 100 complete control), approx. 10 d; for Plant response rating, Ryegrass, Italian: 500 g ai/ha
How it was run: as §2

[7] = test system: giant foxtail (Setaria faberii); test: Test A postemergence; settings: for Foxtail, Giant plant response rating: 125 g ai/ha, visual injury rating on 0 to 100 scale (0 no effect, 100 complete control), approx. 10 d; for Plant response rating, Foxtail, Giant: 500 g ai/ha
How it was run: as §2

[8] = test system: barnyardgrass (Echinochloa crus-galli); test: Test A postemergence; settings: for Barnyardgrass plant response rating: 125 g ai/ha, visual injury rating on 0 to 100 scale (0 no effect, 100 complete control), approx. 10 d; for Plant response rating, Barnyardgrass: 500 g ai/ha
How it was run: as §2

[9] = test system: ragweed (common ragweed, Ambrosia elatior); test: Test A postemergence; settings: for Ragweed plant response rating: 125 g ai/ha, visual injury rating on 0 to 100 scale (0 no effect, 100 complete control), approx. 10 d; for Plant response rating, Ragweed: 500 g ai/ha
How it was run: as §2

[10] = test system: corn (Zea mays); test: Test A postemergence; settings: for Corn plant response rating: 125 g ai/ha, visual injury rating on 0 to 100 scale (0 no effect, 100 complete control), approx. 10 d; for Plant response rating, Corn: 500 g ai/ha
How it was run: as §2

[11] = test system: Galium (catchweed bedstraw, Galium aparine); test: Test A postemergence; settings: for Galium plant response rating: 125 g ai/ha, visual injury rating on 0 to 100 scale (0 no effect, 100 complete control), approx. 10 d; for Plant response rating, Galium: 500 g ai/ha
How it was run: as §2

[12] = test system: wheat (Triticum aestivum); test: Test A postemergence; settings: for Wheat plant response rating: 125 g ai/ha, visual injury rating on 0 to 100 scale (0 no effect, 100 complete control), approx. 10 d; for Plant response rating, Wheat: 500 g ai/ha
How it was run: as §2

[13] = test system: Kochia (Kochia scoparia); test: Test A postemergence; settings: for Kochia plant response rating: 125 g ai/ha, visual injury rating on 0 to 100 scale (0 no effect, 100 complete control), approx. 10 d; for Plant response rating, Kochia: 500 g ai/ha
How it was run: as §2

[14] = test system: blackgrass (Alopecurus myosuroides); test: Test A postemergence; settings: for Blackgrass plant response rating: 125 g ai/ha, visual injury rating on 0 to 100 scale (0 no effect, 100 complete control), approx. 10 d; for Plant response rating, Blackgrass: 500 g ai/ha
How it was run: as §2

[15] = test system: pigweed (Amaranthus retroflexus); test: Test A preemergence; settings: for Plant response rating, Pigweed: 125 g ai/ha; for Pigweed plant response rating (0 to 100 scale, 0 is no effect, 100 is complete control): 500 g ai/ha, visual injury approx. 10 d
[16] = test system: ryegrass, Italian (Italian ryegrass, Lolium multiflorum); test: Test A preemergence; settings: for Plant response rating, Ryegrass, Italian: 125 g ai/ha; for Ryegrass, Italian plant response rating (0 to 100 scale, 0 is no effect, 100 is complete control): 500 g ai/ha, visual injury approx. 10 d
How it was run: as §2

[17] = test system: giant foxtail (Setaria faberii); test: Test A preemergence; settings: for Plant response rating, Foxtail, Giant: 125 g ai/ha; for Foxtail, Giant plant response rating (0 to 100 scale, 0 is no effect, 100 is complete control): 500 g ai/ha, visual injury approx. 10 d
How it was run: as §2

[18] = test system: barnyardgrass (Echinochloa crus-galli); test: Test A preemergence; settings: for Plant response rating, Barnyardgrass: 125 g ai/ha; for Barnyardgrass plant response rating (0 to 100 scale, 0 is no effect, 100 is complete control): 500 g ai/ha, visual injury approx. 10 d
How it was run: as §2

[19] = test system: ragweed (common ragweed, Ambrosia elatior); test: Test A preemergence; settings: for Plant response rating, Ragweed: 125 g ai/ha; for Ragweed plant response rating (0 to 100 scale, 0 is no effect, 100 is complete control): 500 g ai/ha, visual injury approx. 10 d
How it was run: as §2

[20] = test system: Kochia (Kochia scoparia); test: Test A preemergence; settings: for Plant response rating, Kochia: 125 g ai/ha; for Kochia plant response rating (0 to 100 scale, 0 is no effect, 100 is complete control): 500 g ai/ha, visual injury approx. 10 d
How it was run: as §2

[21] = Postemergence, 0 to 100 scale where 0 is no effect and 100 is complete control
[22] = Preemergence, visual injury after approximately 10 d, 0 to 100 scale where 0 is no effect and 100 is complete control
[23] = postemergence, 0 to 100 scale, 0 no effect, 100 complete control
[24] = preemergence, 0 to 100 scale (0 no effect, 100 complete control)

## O=C1NCC(c2cc(F)cc(Cl)c2)C1C(=O)Nc1ccccc1F (stereo not drawn) [Compound 491]
[1]; 250 g ai/ha
  Plant response rating, Barnyardgrass: 0
[2]; 250 g ai/ha
  Plant response rating, Rice: 0
[3]; 250 g ai/ha
  Plant response rating, Sedge, Umbrella: 0
[4]; 250 g ai/ha
  Plant response rating, Ducksalad: 40
[5]; postemergence
  Pigweed plant response rating: 0
[5]; [21]
  Plant response rating, Pigweed: 20
[6]; postemergence
  Ryegrass, Italian plant response rating: 0
[6]; [21]
  Plant response rating, Ryegrass, Italian: 30
[7]; postemergence
  Foxtail, Giant plant response rating: 80
[7]; [21]
  Plant response rating, Foxtail, Giant: 80
[8]; postemergence
  Barnyardgrass plant response rating: 90
[8]; [21]
  Plant response rating, Barnyardgrass: 80
[9]; postemergence
  Ragweed plant response rating: 0
[9]; [21]
  Plant response rating, Ragweed: 20
[10]; postemergence
  Corn plant response rating: 60
[10]; [21]
  Plant response rating, Corn: 90
[11]; postemergence
  Galium plant response rating: 0
[11]; [21]
  Plant response rating, Galium: 30
[12]; postemergence
  Wheat plant response rating: 30
[12]; [21]
  Plant response rating, Wheat: 60
[13]; postemergence
  Kochia plant response rating: 0
[13]; [21]
  Plant response rating, Kochia: 20
[14]; postemergence
  Blackgrass plant response rating: 20
[14]; [21]
  Plant response rating, Blackgrass: 50
[15]; [22]
  Plant response rating, Pigweed: 0
[15]; Preemergence
  Pigweed plant response rating (0 to 100 scale, 0 is no effect, 100 is complete control): 0
[16]; [22]
  Plant response rating, Ryegrass, Italian: 20
[16]; Preemergence
  Ryegrass, Italian plant response rating (0 to 100 scale, 0 is no effect, 100 is complete control): 30
[17]; [22]
  Plant response rating, Foxtail, Giant: 90
[17]; Preemergence
  Foxtail, Giant plant response rating (0 to 100 scale, 0 is no effect, 100 is complete control): 90
[18]; [22]
  Plant response rating, Barnyardgrass: 90
[18]; Preemergence
  Barnyardgrass plant response rating (0 to 100 scale, 0 is no effect, 100 is complete control): 90
[19]; [22]
  Plant response rating, Ragweed: 0
[19]; Preemergence
  Ragweed plant response rating (0 to 100 scale, 0 is no effect, 100 is complete control): 0
[20]; [22]
  Plant response rating, Kochia: 0
[20]; Preemergence
  Kochia plant response rating (0 to 100 scale, 0 is no effect, 100 is complete control): 20

## COc1ccc(NC(=O)C2C(=O)NCC2c2cccc(OC(F)F)c2)c(F)c1 (stereo not drawn) [Compound 425]
[1]; 500 g ai/ha
  Plant response rating, Barnyardgrass: 0
[2]; 500 g ai/ha
  Plant response rating, Rice: 0
[3]; 500 g ai/ha
  Plant response rating, Sedge, Umbrella: 0
[4]; 500 g ai/ha
  Plant response rating, Ducksalad: 30
[5]; postemergence
  Pigweed plant response rating: 0
[5]; [23]
  Plant response rating, Pigweed: 0
[6]; postemergence
  Ryegrass, Italian plant response rating: 0
[6]; [23]
  Plant response rating, Ryegrass, Italian: 0
[7]; postemergence
  Foxtail, Giant plant response rating: 20
[7]; [23]
  Plant response rating, Foxtail, Giant: 30
[8]; postemergence
  Barnyardgrass plant response rating: 20
[8]; [23]
  Plant response rating, Barnyardgrass: 30
[9]; postemergence
  Ragweed plant response rating: 0
[9]; [23]
  Plant response rating, Ragweed: 0
[10]; postemergence
  Corn plant response rating: 0
[10]; [23]
  Plant response rating, Corn: 0
[11]; postemergence
  Galium plant response rating: 0
[11]; [23]
  Plant response rating, Galium: 0
[12]; postemergence
  Wheat plant response rating: 0
[12]; [23]
  Plant response rating, Wheat: 0
[13]; postemergence
  Kochia plant response rating: 0
[13]; [23]
  Plant response rating, Kochia: 0
[14]; postemergence
  Blackgrass plant response rating: 0
[14]; [23]
  Plant response rating, Blackgrass: 0
[15]; [24]
  Plant response rating, Pigweed: 0
[15]; Preemergence
  Pigweed plant response rating (0 to 100 scale, 0 is no effect, 100 is complete control): 0
[16]; [24]
  Plant response rating, Ryegrass, Italian: 0
[16]; Preemergence
  Ryegrass, Italian plant response rating (0 to 100 scale, 0 is no effect, 100 is complete control): 0
[17]; [24]
  Plant response rating, Foxtail, Giant: 40
[17]; Preemergence
  Foxtail, Giant plant response rating (0 to 100 scale, 0 is no effect, 100 is complete control): 70
[18]; [24]
  Plant response rating, Barnyardgrass: 0
[18]; Preemergence
  Barnyardgrass plant response rating (0 to 100 scale, 0 is no effect, 100 is complete control): 20
[19]; [24]
  Plant response rating, Ragweed: 0
[19]; Preemergence
  Ragweed plant response rating (0 to 100 scale, 0 is no effect, 100 is complete control): 0
[20]; [24]
  Plant response rating, Kochia: 0
[20]; Preemergence
  Kochia plant response rating (0 to 100 scale, 0 is no effect, 100 is complete control): 0
